Experiment [1] deals with T1, Human NK3 receptor (Homo sapiens, UniProt P29371).
T1 sequence (P29371 1-465): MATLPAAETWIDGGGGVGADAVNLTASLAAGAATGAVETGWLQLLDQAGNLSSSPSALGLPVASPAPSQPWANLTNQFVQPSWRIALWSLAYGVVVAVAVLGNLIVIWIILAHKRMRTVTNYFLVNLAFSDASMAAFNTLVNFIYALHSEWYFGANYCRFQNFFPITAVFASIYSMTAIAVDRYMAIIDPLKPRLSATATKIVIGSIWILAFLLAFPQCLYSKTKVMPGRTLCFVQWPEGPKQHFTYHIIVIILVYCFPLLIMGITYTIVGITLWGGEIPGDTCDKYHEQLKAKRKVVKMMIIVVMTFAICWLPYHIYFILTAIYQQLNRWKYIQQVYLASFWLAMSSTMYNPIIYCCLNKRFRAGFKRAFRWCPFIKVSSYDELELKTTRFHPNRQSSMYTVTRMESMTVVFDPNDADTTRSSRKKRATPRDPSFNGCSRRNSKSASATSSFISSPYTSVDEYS
In words: NK3 receptor functional assay (antagonist effect, intracellular Ca2+, fluorimetry). The class given is cell-based. The arrangement: expressed in transfected cells; host or cells: CHO cells. The conditions noted are these: result in words; human NK3 receptors. As to the method: (§1) Cellular antagonist effect was calculated as a %-inhibition of reference agonist response for each target.
Human NK3 receptor antagonistic activity was determined by measuring antagonistic effects of the compounds of the formula on the reduction of agonist induced intracellular [Ca^2+] concentrations in CHO cells recombinantly expressing […] using an fluorimetric detection method. The assay was adapted from Medhurst, A.D. et al. (1999), Brit. J. Pharmacol., 128: 627-636. As an agonist to induce intracellular [Ca^2+] [MePhe^7]-NKB was used as outlined in the overview table below.
(§2) For the antagonists, the apparent dissociation constants (KB ) were calculated using the modified Cheng Prusoff equation KB = (IC50)/(1 + (A/EC50A)) [formula] where A = concentration of reference agonist in the assay, and EC50A = EC50 value of the reference agonist.

Experiment [2] addresses T2, NK1 receptors (Homo sapiens, UniProt P25103). Description: NK1 receptor functional assay (antagonist effect, intracellular Ca2+, fluorimetry). Format: cell-based. The arrangement: Human astrocytoma U373MG cells do endogenously express NK1 receptors; endogenous in cells; host or cells: U373MG human astrocytoma cells. The conditions noted are these: result in words. The protocol:
as §1
Human NK1 receptor antagonistic activity assays were performed by measuring antagonistic effects of the compounds of the formula on the reduction agonist induced intracellular [Ca^2+] calcium concentrations in the human astrocytoma cell line U373MG using fluorimetric detection. Human astrocytoma U373MG cells do endogenously express NK1 receptors and were used in the assay according to Eistetter, H.R. et al. (1992), Glia, 6: 89-95 and [Sar^9,Met(O2)^11]-Substance P was used as agonistic stimulus of the NK1 receptor in the cells and assay. Relevant particulars of the assay are outlined in the table below.
as §2

Experiment [3] deals with T1, Human NK3 receptor. In words: NK3 receptor binding assay (antagonist radioligand, scintillation counting). The arrangement: expressed in transfected cells; host or cells: CHO cells (membrane preparations). The note with it: for binding affinities: result in words, human NK3 receptors; for nH: NK3(h) (antagonist radioligand), Hill coefficient of competition curve.
Procedure: Compound binding was calculated as a %-inhibition of the binding of a radioactively labeled ligand specific for each target.
NK3 receptor binding affinities of the compounds of the invention were determined by an scintillation counting and using membrane preparations of CHO cells recombinantly expressing human NK3 receptors (as described by Sarau, H.M. et al. (1997), J. Pharmacol. Exp. Ther., 281: 1303-1311).
The results are expressed as a percent of control specific binding (measured specific binding)/(control specific binding)*100 [formula] and as a percent inhibition of control specific binding 100−((measured specific binding)/(control specific binding)*100) [formula] obtained in the presence of the test compounds.
The IC50 values (concentration causing a half-maximal inhibition of control specific binding) and Hill coefficients (nH) were determined by non-linear regression analysis of the competition curves generated with mean replicate values using Hill equation curve fitting Y = D + [(A−D)/(1 + ((C/C50))^nH)] [formula] where Y = specific binding, A = left asymptote of the curve, D = right asymptote of the curve, C = compound concentration, C50 =IC50, and nH = slope factor. This analysis was performed using software developed at Cerep (Hill software) and validated by comparison with data generated by the commercial software SigmaPlot® 4.0 for Windows® (^© 1997 by SPSS Inc.).
The inhibition constants (Ki) were calculated using the Cheng Prusoff equation Ki = (IC50)/((1+L/KD)) [formula] where L = concentration of radioligand in the assay, and KD = affinity of the radioligand for the receptor. A scatchard plot is used todetermine the KD.
Experiment [4] deals with T2, NK1 receptors. Description: NK1 receptor binding assay (agonist radioligand, scintillation counting). The arrangement: that is endogenously expressing human NK1 receptors; endogenous in cells; host or cells: U373 MG human astrocytoma cells (membrane preparations). The note with it: NK1(h) (agonist radioligand); Hill coefficient of competition curve. From the text:
A scatchard plot is used todetermine the KD.

T2 sequence (P25103 whole entry): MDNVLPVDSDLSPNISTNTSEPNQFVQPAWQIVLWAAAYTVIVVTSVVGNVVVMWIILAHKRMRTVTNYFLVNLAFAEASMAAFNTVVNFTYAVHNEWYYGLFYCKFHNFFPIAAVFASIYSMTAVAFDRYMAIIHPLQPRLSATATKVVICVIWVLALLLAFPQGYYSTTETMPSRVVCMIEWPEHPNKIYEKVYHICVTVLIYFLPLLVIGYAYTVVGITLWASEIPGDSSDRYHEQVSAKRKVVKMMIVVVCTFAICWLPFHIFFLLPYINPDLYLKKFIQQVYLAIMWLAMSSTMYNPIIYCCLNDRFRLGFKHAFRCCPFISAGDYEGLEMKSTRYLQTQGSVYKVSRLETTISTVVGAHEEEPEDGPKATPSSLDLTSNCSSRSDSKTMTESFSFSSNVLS

Regarding `Cc1cc(F)ccc1-c1cc(N2C[C@H]3COCC[N+]3([O-])C[C@H]2CO)ncc1N(C)C(=O)C(C)(C)c1cc(C(F)(F)F)cc(C(F)(F)F)c1` (stereo partly drawn) [compound of formula (II), N-[6-[(7S,9aS)-7-(hydroxymethyl)-5-oxido-3,4,6,7,9,9a-hexahydro-1H-pyrazino[2,1-c][1,4]oxazin-5-ium-8-yl]-4-(4-fluoro-2-methyl-phenyl)-3-pyridyl]-2-[3,5-bis(trifluoromethyl)phenyl]-N,2-dimethyl-propanamide], the antagonistic activities result on Human NK3 receptor [1] and at NK1 receptors [2] was “significant” in each case. For the same molecule, the binding affinities entry on Human NK3 receptor [3] is reported as “significant”.

On to `CC1CN2C[C@@H](CO)N(c3cc(-c4ccc(F)cc4CO)c(N(C)C(=O)C(C)(C)c4cc(C(F)(F)F)cc(C(F)(F)F)c4)cn3)C[C@H]2CO1` (stereo partly drawn) [compound of formula (III), 2-[3,5-bis(trifluoromethyl)phenyl]-N-{4-[4-fluoro-2-(hydroxymethyl)phenyl]-6-[(7S,9aS)-7-(hydroxymethyl)-3-methylhexahydropyrazino[2,1-c][1,4]oxazin-8(1H)-yl]pyridin-3-yl}-N,2-dimethylpropanamide], for which the antagonistic activities result at Human NK3 receptor [1] and on NK1 receptors [2] was “significant” in each case. Moreover, the nH at NK1 receptors [4] and at Human NK3 receptor [3] was 1 each time. Also, the binding affinities entry at Human NK3 receptor [3] is on record as “significant”.

As for `CN(C(=O)C(C)(C)c1cc(C(F)(F)F)cc(C(F)(F)F)c1)c1cnc(N2C[C@H]3COCCN3C[C@H]2CO)cc1-c1ccc(F)cc1CO` [compound of formula (V), 2-[3,5-bis(trifluoromethyl)phenyl]-N-{4-[4-fluoro-2-(hydroxymethyl)phenyl]-6-[(7S,9aS)-7-(hydroxymethyl)hexahydropyrazino[2,1-c][1,4]oxazin-8(1H)-yl]pyridin-3-yl}-N,2-dimethylpropanamide], the antagonistic activities entry at Human NK3 receptor [1] and at NK1 receptors [2] was “significant” in each case. Further, the binding affinities entry at Human NK3 receptor [3] was “significant”.

As to `Cc1cc(F)ccc1-c1cc(N2C[C@H]3COC(C)CN3C[C@H]2CO)ncc1N(C)C(=O)C(C)(C)c1cc(C(F)(F)F)cc(C(F)(F)F)c1` (stereo partly drawn) [compound of formula (IV), 2-[3,5-bis(trifluoromethyl)phenyl]-N-{4-(4-fluoro-2-methylphenyl)-6-[(7S,9aS)-7-(hydroxymethyl)-3-methylhexahydropyrazino[2,1-c][1,4]oxazin-8(1H)-yl]pyridin-3-yl}-N,2-dimethylpropanamide], the antagonistic activities result at Human NK3 receptor [1] and at NK1 receptors [2] was “significant” throughout. Besides, the nH at NK1 receptors [4] amounted to 1.2; at Human NK3 receptor [3], 1.3. Besides, the binding affinities entry on Human NK3 receptor [3] is reported as “significant”.

The values are drawn from patent publication EP4431512A1, “NOVEL DUAL NK-1/NK-3 RECEPTOR ANTAGONISTS” (Bayer Consumer Care AG, priority 2023, dated 2024).
